{
  "source": "ChEMBL document CHEMBL5500339",
  "about": "“4-Hydroxy-2-pyridone derivatives with antitumor activity produced by mangrove endophytic fungus Talaromyces sp. CY-3” (Eur J Med Chem, 2024)",
  "key": {"A549 [1]": {"test_system": "A549", "assay": "Cytotoxicity against human A549 cells assessed as reduction in cell viability incubated for 48 hrs by MTT assay", "assay_type": "functional, cell-based", "conditions": "A549, 48 h"}, "NCI-H1703 [2]": {"test_system": "NCI-H1703", "assay": "Cytotoxicity against human NCI-H1703 cells assessed as reduction in cell viability incubated for 48 hrs by MTT assay", "assay_type": "functional, cell-based", "conditions": "NCI-H1703, 48 h"}, "Hepa 1-6": {"test_system": "Hepa 1-6", "assay": "Cytotoxicity against mouse Hepa1-6 cells assessed as reduction in cell viability incubated for 48 hrs by MTT assay", "assay_type": "functional, cell-based", "conditions": "Hepa1-6, 48 h"}, "A549 [3]": {"test_system": "A549", "assay": "Antiproliferative activity against human A549 cells assessed as inhibition of cell growth at 10 uM incubated for 24 hrs by MTT assay", "assay_type": "functional, cell-based"}, "A549 [4]": {"test_system": "A549", "assay": "Antiproliferative activity against human A549 cells assessed as inhibition of cell growth at 20 uM incubated for 24 hrs by MTT assay", "assay_type": "functional, cell-based"}, "NCI-H1703 [5]": {"test_system": "NCI-H1703", "assay": "Antiproliferative activity against human NCI-H1703 cells assessed as inhibition of cell growth at 20 uM incubated for 24 hrs by MTT assay", "assay_type": "functional, cell-based"}, "A549 [6]": {"test_system": "A549", "assay": "Induction of cell cycle arrest in human A549 cells assessed as accumulation of cells at G1/G0 phase at 10 uM incubated for 24 hrs by flow cytometric analysis (reference value: 51.49 %)", "assay_type": "functional"}, "A549 [7]": {"test_system": "A549", "assay": "Induction of cell cycle arrest in human A549 cells assessed as accumulation of cells at G2/M phase at 20 uM incubated for 24 hrs by flow cytometric analysis (reference value: 17.2 %)", "assay_type": "functional"}, "NCI-H1703 [8]": {"test_system": "NCI-H1703", "assay": "Induction of cell cycle arrest in human NCI-H1703 cells assessed as accumulation of cells at S phase at 5 uM incubated for 24 hrs by flow cytometric analysis (reference value: 28.06 %)", "assay_type": "functional"}, "NCI-H1703 [9]": {"test_system": "NCI-H1703", "assay": "Induction of cell cycle arrest in human NCI-H1703 cells assessed as accumulation of cells at G2/M phase at 5 uM incubated for 24 hrs by flow cytometric analysis (reference value: 29.88 %)", "assay_type": "functional"}, "NCI-H1703 [10]": {"test_system": "NCI-H1703", "assay": "Induction of cell cycle arrest in human NCI-H1703 cells assessed as accumulation of cells at G1/G0 phase at 10 uM incubated for 24 hrs by flow cytometric analysis (reference value: 42.06 %)", "assay_type": "functional"}, "NCI-H1703 [11]": {"test_system": "NCI-H1703", "assay": "Induction of cell cycle arrest in human NCI-H1703 cells assessed as upregulation of p53 protein expression incubated for 24 hrs by Western blotting analysis", "assay_type": "functional, cell-based"}, "A549 [12]": {"test_system": "A549", "assay": "Induction of cell cycle arrest in human A549 cells assessed as downregulation of CyclinD1 protein expression incubated for 24 hrs by Western blotting analysis", "assay_type": "functional, cell-based"}, "NCI-H1703 [13]": {"test_system": "NCI-H1703", "assay": "Induction of cell cycle arrest in human NCI-H1703 cells assessed as downregulation of CyclinD1 protein expression incubated for 24 hrs by Western blotting analysis", "assay_type": "functional, cell-based"}},
  "note": "The source made the active and inactive calls. No cut-off for these calls is given here.",
  "data": [
    {"smiles": "C/C=C/[C@@H]1[C@H]2C[C@@H](C)CC[C@@H]2C(C)=C[C@H]1C(=O)c1c(O)c(-c2ccc(O)cc2)c[nH]c1=O", "note": "[ILICICOLIN H]", "values": [
      {"measurement": "IC50", "setting": "A549 [1]", "result": 7.01, "unit": "µM"},
      {"measurement": "IC50", "setting": "NCI-H1703 [2]", "result": 6.65, "unit": "µM"},
      {"measurement": "IC50", "setting": "Hepa 1-6", "result": 19.6, "unit": "µM"},
      {"measurement": "Activity", "setting": "A549 [3]", "result": "Active"},
      {"measurement": "Activity", "setting": "A549 [4]", "result": "Active"},
      {"measurement": "Activity", "setting": "NCI-H1703 [5]", "result": "Active"},
      {"measurement": "Activity", "setting": "A549 [6]", "result": 64.26, "unit": "%"},
      {"measurement": "Activity", "setting": "A549 [7]", "result": 12.93, "unit": "%"},
      {"measurement": "Activity", "setting": "NCI-H1703 [8]", "result": 23.26, "unit": "%"},
      {"measurement": "Activity", "setting": "NCI-H1703 [9]", "result": 26.61, "unit": "%"},
      {"measurement": "Activity", "setting": "NCI-H1703 [10]", "result": 56.04, "unit": "%"},
      {"measurement": "Activity", "setting": "NCI-H1703 [11]", "result": "Dose-Dependent Effect"},
      {"measurement": "Activity", "setting": "A549 [12]", "result": "Dose-Dependent Effect"},
      {"measurement": "Activity", "setting": "NCI-H1703 [13]", "result": "Dose-Dependent Effect"}
    ]}
  ]
}
